# Laboratory results from ChEMBL document CHEMBL1121708, “Synthesis and study of the potential antiallergic activity of some pyrazole derivatives” (1981).
# Tests used:
# Rattus norvegicus [1] = test: Compound was tested for inhibition of the rat passive cutaneous anaphylaxis (PCA) 1 hr after oral administration; >0<50; format: functional; parameters: concentration or dose not given beside the values
# Rattus norvegicus [2] = test: Compound was tested for inhibition of the rat passive cutaneous anaphylaxis (PCA) 3h after oral administration; >0<50; format: functional; parameters: concentration or dose not given beside the values
SMILES,Inhibition (Rattus norvegicus [1]) [%],Inhibition (Rattus norvegicus [2]) [%]
c1ccc2c(c1)SCc1cn[nH]c1-2,>0,>0
c1ccc2c(c1)CCc1c[nH]nc1-2,>0,>0
Oc1ccc2c(c1)-c1n[nH]cc1CC2,>0,>0
COc1cccc2c1CCc1c[nH]nc1-2,15,>0
Oc1ccc2c(c1)CCc1c[nH]nc1-2,>0,>0
CCc1cc2c(cc1CC)-c1n[nH]cc1CC2,>0,>0
Oc1cccc2c1CCc1c[nH]nc1-2,>0,>0
COc1ccc2c(c1)CCc1c[nH]nc1-2,>0,>0
COc1ccc2c(c1)-c1n[nH]cc1CC2,32,>0
c1[nH]nc2c1CCC1c3n[nH]cc3CCC21 (stereo not drawn),77,55
c1ccc2c(c1)CCCc1c[nH]nc1-2,>0,>0
Nc1ccc2[nH]ncc2c1,>0,54
CC1Cc2c[nH]nc2-c2ccccc21 (stereo not drawn),>0,>0
c1ccc2c(c1)OCc1cn[nH]c1-2,>0,>0
